The values below are quoted from earlier work in patent publication US20250017941A1, “METHODS OF TREATING NON-HODGKIN LYMPHOMA USING 2-(2,6-DIOXOPIPERIDIN-3-YL)-4-((2-FLUORO-4-((3-MORPHOLINOAZETIDIN-1-YL)METHYL)BENZYL)AMINO)ISOINDOLINE-1,3-DIONE” (Celgene Corporation, priority 2021, published 2025).

Data set [1] has as its system patients with FL who had received 2 or more prior systemic therapies.
Data set [2] has as its system adult patients with CD20-positive indolent non-Hodgkin lymphoma refractory to rituximab.
[3] abbreviates: 53 patients with EZH2 wild-type status, 800 mg orally twice daily.
Setting [4] is: tafasitamab in combination with lenalidomide, R/R DLBCL.
The mark [5] stands for this setting: tafasitamab in combination with lenalidomide, listed with the G3/4 events.

Read-outs that look alike come from different tables or passages of the source.

As to `CCN(c1cc(-c2ccc(CN3CCOCC3)cc2)cc(C(=O)NCc2c(C)cc(C)[nH]c2=O)c1C)C1CCOCC1` [Tazemetostat, N-[(1,2-dihydro-4,6-dimethyl-2-oxo-3-pyridinyl)methyl]-5-[ethyl (tetrahydro-2H-pyran-4-yl)amino]-4-methyl-4′-(4-morpholinylmethyl)-[1,1′-biphenyl]-3-carboxamide], in data set [1] (800 mg orally twice daily), the “Grade 3/4 anemia, patients” value is given as 8%; the “Grade 3/4 neutropenia, patients” value is on record as 7%; the “Grade 3/4 thrombocytopenia, patients” value is 7%; the “Serious AEs, patients” value is 30%. In data set [1] (42 patients with EZH2 mutated status, 800 mg orally twice daily), the CR rate is on record as 12%. The ORR in data set [1] (42 patients with EZH2 mutated status, tazemetostat 800 mg orally twice daily) is given as 69%. In addition, in data set [1] (setting [3]), the CR rate is given as 4% and the ORR is listed as 34%. The mDOR in data set [1] (EZH2 wild-type cohort, 800 mg orally twice daily) is 13 months. In addition, in data set [1] (fatigue, upper respiratory tract infection, nausea, abdominal pain and musculoskeletal pain), the “most common AEs of all grades, frequency” value was not below 20%. Further, in data set [1] (general physical health deterioration, abdominal pain, pneumonia, sepsis and anemia), the “most common serious AEs, patients” value is on record as “at least 2%”. Further, the mDOR in data set [1] (patients with EZH2 mutated status, 800 mg orally twice daily) is 10.9 months.

With `Cn1c(CCCC(=O)O)nc2cc(N(CCCl)CCCl)ccc21` [bendamustine], the “PFS (primary endpoint)” value in data set [2] (median follow-up 21.9 months (obinutuzumab plus bendamustine) and 20.3 months (bendamustine monotherapy)) is 14.9 months. In addition, in data set [2] (per arm), the “Febrile neutropenia, occurrence” value is on record as “uncommon”; the “Grade 3/4 anemia, patients” value is listed as 8%; the “Grade 3/4 neutropenia, patients” value is 26%; the “Grade 3/4 thrombocytopenia, patients” value is given as 15%. For the same compound, in data set [2] (per treatment group), the “Serious AEs, patients” value is 33% and the “deaths due to adverse events, patients” value was 6%.

Turning to “tafasitamab: anti-CD19 monoclonal antibody; results are for the combination with lenalidomide”, the “objective response rate (ORR)” value in the data set with patients with R/R DLBCL (tafasitamab 12 mg/kg intravenously in combination with lenalidomide 25 mg orally, R/R DLBCL, 81 participants) is given as 60%. Besides, the “complete response (CR) rate” value with patients with R/R DLBCL (tafasitamab 12 mg/kg intravenously in combination with lenalidomide, R/R DLBCL, 81 participants) is listed as 34%. Also, in the data set with patients with R/R DLBCL (setting [4]), the “G3/4 febrile neutropenia, patients” value is listed as 12%; the “G3/4 neutropenia, patients” value is 48%; the “Serious AEs, patients” value is 52%; the “Serious AEs: febrile neutropenia, patients” value is 6%. Also, in the data set with patients with R/R DLBCL (setting [4]), the “Serious AEs: pneumonia, patients” value is 6% and the “median duration of response” value was 21.7 months. In the data set on patients with R/R DLBCL (setting [5]), the “anemia, patients” value is 7% and the “thrombocytopenia, patients” value is listed as 17%. The “most common adverse events (AEs) of all grades, frequency” value with patients with R/R DLBCL (tafasitamab in combination with lenalidomide, neutropenia, fatigue, anemia, diarrhea, thrombocytopenia, cough, pyrexia, peripheral edema, rash, decreased appetite) is not below 20%.
